Results published in US20090270456A1, “Novel chemical compounds” (priority 2004, published 2009).

Columns and labels:
hYAK3 = target: T1, hYAK3 (Homo sapiens, UniProt O43781); assay: YAK3 scintillation proximity assay using Ser164 of myelin basic protein as the phosphoacceptor; format: biochemical; conditions: purified GST-hYak3-His6, 4 μM Ser164 peptide, 0.001 mM ATP, 2 hours room temperature; read-out: pIC50 values (converted)
T1 construct: GST (N); His6 (C); made in house; host or cells: baculovirus expression system in Sf9 cells
T1 sequence (O43781 124-526): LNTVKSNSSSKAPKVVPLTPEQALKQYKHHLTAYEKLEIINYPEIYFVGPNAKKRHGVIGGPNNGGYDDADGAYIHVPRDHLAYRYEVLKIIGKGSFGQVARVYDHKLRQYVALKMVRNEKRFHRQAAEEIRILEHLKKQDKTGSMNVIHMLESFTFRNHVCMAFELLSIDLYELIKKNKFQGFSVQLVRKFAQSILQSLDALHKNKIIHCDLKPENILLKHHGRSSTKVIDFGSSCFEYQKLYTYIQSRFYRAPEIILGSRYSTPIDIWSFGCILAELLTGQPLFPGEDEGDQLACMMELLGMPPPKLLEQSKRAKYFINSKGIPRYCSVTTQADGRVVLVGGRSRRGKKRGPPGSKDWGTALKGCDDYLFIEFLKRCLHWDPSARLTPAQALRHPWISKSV
Method: YAK3 Scintillation Proximity Assays Using Ser164 of Myelin Basic Protein as the Phosphoacceptor
The source of Ser164 substrate peptide The biotinylated Ser164, S164A peptide(Biotinyl—LGGRDSRAGS*PMARR—OH), sequence derived from the C-terminus of bovine myelin basic protein (MBP) with Ser162 substituted as Ala162, was purchased from California Peptide Research Inc. (Napa, Calif.), and its purity was determined by HPLC. Phosphorylation occurs at position 164 (marked S* above). The calculated molecular mass of the peptide was 2166 dalton. Solid sample was dissolved at 10 mM in DMSO, aliquoted, and stored at −20° C. until use.
The source of hYAK3 enzyme: Glutathione-S-Transferase (GST)-hYak3-His6 containing amino acid residues 124-526 of human YAK3 (aa 124-526 of SEQ ID NO 2. in U.S. Pat. No. 6,323,318) was purified from baculovirus expression system in Sf9 cells using Glutathione Sepharose 4B column chromatography followed by Ni-NTA-Agarose column chromatography. Purity greater than 65% typically was achieved. Samples, in 50 mM Tris, 150 mM NaCl, 10% glycerol, 0.1% Triton, 250 mM imidazole, 10 mM β-mercapto ethanol, pH 8.0. were stored at −80° C. until use.
Kinase assay of purified hYAK3: Assays were performed in 96 well (Costar, Catalog No. 3789) or 384 well plates (Costar, Catalog No. 3705). […] Compounds, titrated in DMSO, were evaluated at concentrations ranging from 50 μM to 0.5 nM. […]

[1] = target: T2, casein kinase 2 alpha (CK2α) (Homo sapiens, UniProt P68400); assay: CK2α kinase assay using peptide phosphoacceptor (substrate phosphorylation, SPA); format: biochemical; conditions: purified CK2α (co-expressed with CK2β), 0.001 mM peptide, 0.001 mM ATP, 3 hours room temperature; read-out: pIC50 values (converted)
T2 construct: made in house; host or cells: baculovirus-based vectors in Sf21 insect cells
Method: Compounds of the present invention were also tested for casein kinase 2 alpha (CK2α) inhibitory activity in substrate phosphorylation assays. This assay examines the ability of small molecule organic compounds to inhibit the serine phosphorylation of a peptide substrate.
Kinase Assays Using Peptide Phosphoacceptor
The biotinylated peptide (Biotin—GGRRRDDDS*DDD-OH), was purchased from Biosource International, Inc. (Camarillo, Calif.), and its purity was determined by HPLC. Phosphorylation of serine (S*) occurs under assay conditions described. The calculated molecular mass of the peptide was 1713 dalton. Solid sample was dissolved at 10 mM in DMSO, aliquoted, and stored at −20° C. until use.
Recombinant expression of casein kinase 2 alpha (CK2α), using baculovirus-based vectors in Sf21 insect cells and purified by P11 phosphocellulose (Whatman) chromatography of the clarified cell lysate, produced constitutively active enzyme. CK2α was co-expressed with CK2β. Samples were stored at −20° C. in the presence of 50% glycerol until use.
Kinase Assay of Purified CK2α:
Assays were performed in 384 well plates (Costar, Catalog No. 3705). Compounds first were delivered to the plate in one microliter DMSO, followed by reaction mix (in 40 ul volume), which contained in final concentrations 25 mM Hepes buffer, pH 7.4; […]; 150 mM NaCl; 1 mM β-mercapto ethanol; 0.0025% Tween-20; 0.001 mM ATP, 0.1 μCi of [γ-33P]ATP; purified CK2α (6 ng/assay), and 0.001 mM peptide. […]
The data for dose responses were plotted as % Inhibition, calculated with the data reduction formula 100*(1−[(U1−C2)/(C1−C2)]), versus concentration of compound, where U is the unknown value, C1 is the average control value obtained for DMSO, and C2 is the average control value obtained for 0.05M EDTA Data were fitted to the curve described by: y=((Vmax*x)/(K+x)) where Vmax is the upper asymptote and K is the IC50. The results for each compound were recorded as pIC50 calculated as follows: pIC50=−Log 10(K) in Table 2.

T2 sequence (P68400 whole entry): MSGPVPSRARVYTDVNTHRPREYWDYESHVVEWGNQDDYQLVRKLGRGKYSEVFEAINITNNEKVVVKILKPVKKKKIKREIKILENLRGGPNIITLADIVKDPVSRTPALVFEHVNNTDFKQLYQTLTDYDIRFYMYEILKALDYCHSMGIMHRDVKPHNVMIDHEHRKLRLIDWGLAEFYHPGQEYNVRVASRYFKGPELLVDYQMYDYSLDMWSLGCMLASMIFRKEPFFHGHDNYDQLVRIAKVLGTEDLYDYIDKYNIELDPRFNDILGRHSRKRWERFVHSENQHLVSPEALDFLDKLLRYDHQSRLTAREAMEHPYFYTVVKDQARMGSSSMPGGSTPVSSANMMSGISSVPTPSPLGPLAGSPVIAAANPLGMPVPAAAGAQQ
T2 sequence (P67870 whole entry partner): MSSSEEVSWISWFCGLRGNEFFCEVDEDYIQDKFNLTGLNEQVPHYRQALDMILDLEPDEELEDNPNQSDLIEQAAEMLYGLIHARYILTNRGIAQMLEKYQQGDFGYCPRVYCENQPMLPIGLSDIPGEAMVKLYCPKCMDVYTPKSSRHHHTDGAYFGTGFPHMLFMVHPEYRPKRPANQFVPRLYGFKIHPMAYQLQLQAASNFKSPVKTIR

Structure (SMILES) | IC50 (hYAK3) | IC50 [1]
COc1ccc(-c2nc(Nc3ccccc3C(F)(F)F)c(C(=O)O)s2)cc1 [Ibd, 5-Carboxyl-2-(4-methoxyphenyl)-4-(2-trifluoromethylanilino)thiazole] | 102 to 1000 nM | 
COc1cccc(-c2nc(Nc3ccccc3F)c(C(=O)O)s2)c1 [Ibf, 5-Carboxyl-4-(2-fluoroanilino)-2-(3-methoxyphenyl)thiazole] | 1020 to 10000 nM | 
NC(=O)c1sc(-c2ccc3c(c2)CCO3)nc1Nc1ccccc1Cl [Ieb, 4-(2-Chlorophenylamino)-2-(2,3-dihydrobenzofuran-5-yl) thiazole-5-carboxylic acid amide] |  | 1020 to 10000 nM

The remaining lines, values ahead:

IC50 (hYAK3) | IC50 [1] | Structure (SMILES)
 | 10.2 to 100 nM | COc1ccc(-c2nc(Nc3cc(C(N)=O)ccc3Cl)c(C(=O)O)s2)cc1 [Ief, 4-(5-Carbamoyl-2-chlorophenylamino)-2-(4-methoxyphenyl)thiazole-5-carboxylic acid]
 | 102 to 1000 nM | COc1ccc(-c2nc(Nc3cc(S(=O)(=O)O)ccc3Cl)c(C(=O)O)s2)cc1 [Ieg, 4-(2-Chloro-5-sulfophenylamino)-2-(4-methoxyphenyl) thiazole-5-carboxylic acid]
